Measurements taken from patent US20220402883A1, “COMPOUNDS AND METHODS FOR MODULATING RNA FUNCTION” (Arrakis Therapeutics, Inc., priority 2016, published 2022).

Legend:
[1] = system: RNA3WJ_1.0.0_5IB_3FAM (cis 3WJ with one unpaired nucleotide); test: Fluorescence quenching binding assay (FAM / Iowa Black); details: two concentration points
Method: (§1) This assay will be used to test binding of compounds for RNA three way junction (such as a 38 nt construct). This is a fluorescence quenching assay utilizing FAM as fluorescence tag and Iowa Black as quencher. Tags are attached at the 3′ and 5′ end, respectively. Stable formation of MW upon compound binding would lead to quenching of the FAM fluorescence due to close proximity of the Iowa Black tag. Assay readout: FAM (485-520 nm) Fluorescence Intensity.
(§2) Assay sample buffer used: 10 mM CacoK pH 7.2, 30 mM NaCl. Buffer preparation in Dnase/Rnase Free distilled water (Gibco Life Technologies).
(§3) Dilute the RNA 1:10 (final 10 μM) in Assay Buffer.
(§4) Heat up the diluted RNA up to 90° C. for 5 min (sealed Eppendorf Tube).
(§5) Cool down the RNA probe slowly to RT.
(§6) Dilute the compounds to 800 μM in DMSO (Assay: 8 μM).
(§7) Final concentrations in the sample: 1-10 μM RNA, 8 μM compound, 1% DMSO
(§8) Pipet 25 μL Sample Solution into Greiner cat #784076, black, 384
(§9) Measure the 96 plate with the LightCycler480 (Channel: 485/520 nm).
(§10) The fluorescence quenching experiment was repeated for compounds Ark0000013 and Ark0000014 to measure binding with:
A) RNA3WJ_1.0.0_5IB_3FAM (cis 3WJ with one unpaired nucleotide)
(§11) Both cmpds were tested at two concentration points in the fluorescence quenching assays to assess effect upon RNA constructs utilized in the study. […]

[2] = system: Split3WJ.1_up_5IB+Split3WJ.1_down_3FAM (trans 3WJ as 1:1 mix); test: as above; details: two concentration points
Method: as §1, §2, §3, §4, §5, §6, §7, §8, §9, §10
B) Split3WJ.1_up_5IB+Split3WJ.1_down_3FAM (trans 3WJ as 1:1 mix)
as §11

[3] = system: Split3WJ.2 up_5IB+Split3WJ.2_down_3FAM (trans 3WJ as 1:1 mix); test: as above; details: two concentration points
Method: as §1, §2, §3, §4, §5, §6, §7, §8, §9, §10
C) Split3WJ.2 up_5IB+Split3WJ.2_down_3FAM (trans 3WJ as 1:1 mix)
as §11

[4] = system: RNA3WJ_0.0.0_5IB_3FAM (3WJ_0.0.0_5IB_3FAM RNA construct); test: Thermal shift binding assay
How it was run: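 A 3WJ RNA construct, 5′-Iowa Black/3′-FAM labelled and annealed (90° C. for 5 min, slow cooling), was tested at 1 μM with 8 μM compound, 1% DMSO, in 10 mM CacoK pH 7.2, 30 mM NaCl. FAM fluorescence (480/510 nm) monitored from 41 to 91° C. at 0.1° C./sec. Compound effect on 3WJ stability taken from Tm shift of melting curves.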

RNA3WJ_3.0.0_5IB_3FAM = test: Thermal shift binding assay; details: 1 μM RNA, 8 μM compound, 10 mM CacoK pH 7.2, 30 mM NaCl
RNA3WJ_1.1.0_5IB_3FAM = test: Thermal shift binding assay; details: 1 μM RNA, 8 μM compound, 10 mM CacoK pH 7.2, 30 mM NaCl
Description: (§12) Purpose: Test binding of compounds for RNA three way junction (for example, a construct of 38 nt). Thermal shift assay based on established fluorescence quenching assay utilizing FAM as fluorescence tag and Iowa Black as quencher. Tags were attached at the 3′ and 5′ end, respectively. Stable formation of 3WJ upon compound binding would lead to quenching of the FAM fluorescence due to close proximity of the Iowa Black tag. Thermal unfolding leads to increase of fluorescence emission. Assay readout: FAM (465-510 nm) Thermal Shift.
as §2, §3, §4, §5, §6
(§13) Final concentrations in the sample: 1 μM RNA, 8 μM compound, 1% DMSO
(§14) Pipet 20 μL Sample Solution into Roche, Light Cycler480 Multiwell Plate96, white, REF 04729692001.
(§15) Measure the 96 plate with the LightCycler480 (Channel: 480/510 nm; Temperature: 41-91° C.).
(§16) Analyse measurement-data with the MeltingCurveGenotyping Mode.
(§17) Settings: Acquisition mode: continuous; Ramp rate: 0.1° C./sec; Acquisition: 6° C.
(§18) Curves are fitted with raw and normalized data.
(§19) Melting curves analysis show melting temperature (Tm) of ˜51° C. Range of RNA concentrations was tested and assay window was determined (conc. range of 0.5-1 μM yields best results). The choice of buffer also affected the Tm. RNA constructs were tested under different buffer conditions (especially in presence of salt) in the thermal shift assay. […] CacoK with 30 mM salt at 1 μM RNA conc. was used to assess compound effects on 3WJ stability. […] These conditions were used for screening test compounds.

RNA3WJ_1.1.1_5IB_3FAM = test: Thermal shift binding assay; details: 1 μM RNA, 8 μM compound, 10 mM CacoK pH 7.2, 30 mM NaCl
Description: as §12, §2, §3, §4, §5, §6, §13, §14, §15, §16, §17, §18, §19

RNA3WJ_2.0.0_5IB_3FAM = test: Thermal shift binding assay; details: 1 μM RNA, 8 μM compound, 10 mM CacoK pH 7.2, 30 mM NaCl
Description: as §12, §2, §3, §4, §5, §6, §13, §14, §15, §16, §17, §18, §19

RNA3WJ_2.1.0_5IB_3FAM = test: Thermal shift binding assay; details: 1 μM RNA, 8 μM compound, 10 mM CacoK pH 7.2, 30 mM NaCl
Description: as §12, §2, §3, §4, §5, §6, §13, §14, §15, §16, §17, §18, §19

[5] = 1 μM RNA, 8 μM compound, 10 mM CacoK pH 7.2, 30 mM NaCl

CN(CCCN)CCCNC(=O)c1ccc2c(c1)C1c3cc(C(=O)NCCCN(C)CCCN)ccc3C2c2ccc(C(=O)NCCCN(C)CCCN)cc21 [Ark000013, N^2,N^7,N^15-tris(3-((3-aminopropyl)(methyl)amino)propyl)-9,10-dihydro-9,10-[1,2]benzenoanthracene-2,7,15-tricarboxamide]
fluorescence quenching effect (FAM fluorescence signal) [1]: significant concentration dependent effect
fluorescence quenching effect (FAM fluorescence signal) [2]: significant concentration dependent effect
fluorescence quenching effect (FAM fluorescence signal) [3]: significant concentration dependent effect
Melting temp + cmpd [4, 5]: 84.1 °C
Temp. Shift [4, 5]: 24.2 °C
Melt. Temp. with cmpd ([4]; RNA sequence 3WJ_0.0.0_5IB_FAM, melting temperature in presence of compound): 84.1 °C
Shift melt. Temp. ([4]; RNA sequence 3WJ_0.0.0_5IB_FAM, with cmpd minus without cmpd): +24.2 °C
Melting temp + cmpd (RNA3WJ_3.0.0_5IB_3FAM): 83.7 °C
Temp. Shift (RNA3WJ_3.0.0_5IB_3FAM): 21.7 °C
Melting temp + cmpd (RNA3WJ_1.1.0_5IB_3FAM): 85.5 °C
Temp. Shift (RNA3WJ_1.1.0_5IB_3FAM): 22.2 °C
Melting temp + cmpd (RNA3WJ_1.1.1_5IB_3FAM): 82.9 °C
Temp. Shift (RNA3WJ_1.1.1_5IB_3FAM): 20.7 °C
Melting temp + cmpd (RNA3WJ_2.0.0_5IB_3FAM): 84.3 °C
Temp. Shift (RNA3WJ_2.0.0_5IB_3FAM): 22.1 °C
Melting temp + cmpd (RNA3WJ_2.1.0_5IB_3FAM): 45.7 °C
Temp. Shift (RNA3WJ_2.1.0_5IB_3FAM): 3.8 °C
